PubChem BioAssay AID2060884 (Molecular Pharmacology Branch, DTP, NCI, 2025)

System: NCI-H929 complex spheroids, viability % test/control
Test: Anticancer human tumor NCI-H929 cell line growth inhibition [RAS];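 also: compound exposure lasted seven days before viability was read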;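 as to viability, T/C: 100% = DMSO vehicle control viability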
Details: for IC50: curve of first compound; for viability, T/C: stronger effect = lower value
How it was run: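 Multi-cell-type spheroids: tumor cells plus HUVEC endothelial cells and mesenchymal stem cells. RAS-pathway inhibitors were combined with targeted agents, each dosed in half-log steps down from clinical Cmax, or from 10 microM when Cmax was unknown.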

[1] = second compound 0.000949 µM, first compound 0.000949 µM
[2] = second compound 0.000949 µM, first compound 0.003 µM
[3] = second compound 0.000949 µM, first compound 0.00949 µM
[4] = second compound 0.000949 µM, first compound 0.03 µM
[5] = second compound 0.000949 µM, first compound 0.0949 µM
[6] = second compound 0.000949 µM, first compound 0.3 µM
[7] = second compound 0.003 µM, first compound 0.000949 µM
[8] = second compound 0.003 µM, first compound 0.003 µM
[9] = second compound 0.003 µM, first compound 0.00949 µM
[10] = second compound 0.003 µM, first compound 0.03 µM
[11] = second compound 0.003 µM, first compound 0.0949 µM
[12] = second compound 0.003 µM, first compound 0.3 µM
[13] = second compound 0.00949 µM, first compound 0.000949 µM
[14] = second compound 0.00949 µM, first compound 0.003 µM
[15] = second compound 0.00949 µM, first compound 0.00949 µM
[16] = second compound 0.00949 µM, first compound 0.03 µM
[17] = second compound 0.00949 µM, first compound 0.0949 µM
[18] = second compound 0.00949 µM, first compound 0.3 µM
[19] = second compound 0.03 µM, first compound 0.000949 µM
[20] = second compound 0.03 µM, first compound 0.003 µM
[21] = second compound 0.03 µM, first compound 0.00949 µM
[22] = second compound 0.03 µM, first compound 0.03 µM
[23] = second compound 0.03 µM, first compound 0.0949 µM
[24] = second compound 0.03 µM, first compound 0.3 µM
[25] = second compound 0.0949 µM, first compound 0.000949 µM
[26] = second compound 0.0949 µM, first compound 0.003 µM
[27] = second compound 0.0949 µM, first compound 0.00949 µM
[28] = second compound 0.0949 µM, first compound 0.03 µM
[29] = second compound 0.0949 µM, first compound 0.0949 µM
[30] = second compound 0.0949 µM, first compound 0.3 µM
[31] = second compound 0.3 µM, first compound 0.000949 µM
[32] = second compound 0.3 µM, first compound 0.003 µM
[33] = second compound 0.3 µM, first compound 0.00949 µM
[34] = second compound 0.3 µM, first compound 0.03 µM
[35] = second compound 0.3 µM, first compound 0.0949 µM
[36] = second compound 0.3 µM, first compound 0.3 µM

Q: C=CC(=O)N1CCN(c2nc(OCC3CCCN3C)nc3c(F)c(-c4nc(N)cc(C)c4C(F)(F)F)c(Cl)cc23)C(C)C1 (stereo unspecified) + CCn1c(-c2cccnc2C(C)OC)c2c3cc(ccc31)N1CCOC(CC(NC(=O)C(C(C)C)N(C)C(=O)C3(F)CCN(C(=O)C#CC(C)(C)N(C)C)CC3)C(=O)N3CCCC(N3)C(=O)OCC(C)(C)C2)C1 was tested. Which IC50 (second compound 0.000949 µM) did it give?
A: Its IC50 is over 1000 nM.

Q: What about the IC50 (second compound 0.003 µM) of the same molecule?
A: Its IC50 is over 1000 nM.

Q: What about the IC50 (second compound 0.00949 µM) of the same molecule?
A: The IC50 was over 1000 nM.

Q: What about the IC50 (second compound 0.03 µM) of the same molecule?
A: Its IC50 is over 1000 nM.

Q: And the IC50 (second compound 0.0949 µM)?
A: Its IC50 is over 1000 nM.

Q: And the IC50 (second compound 0.3 µM)?
A: The IC50 was over 1000 nM.

Q: And the viability, T/C (second compound 0.000949 µM, first compound 0.00316 µM)?
A: The viability, T/C was 104%.

Q: What about the viability, T/C (second compound 0.000949 µM, first compound 0.01 µM) of the same molecule?
A: The viability, T/C was 103%.

Q: What about the viability, T/C (second compound 0.000949 µM, first compound 0.0316 µM) of the same molecule?
A: Its viability, T/C is 103%.

Q: And the viability, T/C (second compound 0.000949 µM, first compound 0.1 µM)?
A: The viability, T/C was 104%.

Q: What about the viability, T/C (second compound 0.000949 µM, first compound 0.316 µM) of the same molecule?
A: Its viability, T/C is 102%.

Q: And the viability, T/C (second compound 0.000949 µM, first compound 1 µM)?
A: The viability, T/C was 105%.

Q: And the viability, T/C (second compound 0.003 µM, first compound 0.00316 µM)?
A: The viability, T/C was 104%.

Q: And the viability, T/C (second compound 0.003 µM, first compound 0.01 µM)?
A: Its viability, T/C is 105%.

Q: What about the viability, T/C (second compound 0.003 µM, first compound 0.0316 µM) of the same molecule?
A: Its viability, T/C is 101%.

Q: And the viability, T/C (second compound 0.003 µM, first compound 0.1 µM)?
A: The viability, T/C was 102%.

Q: What about the viability, T/C (second compound 0.003 µM, first compound 0.316 µM) of the same molecule?
A: Its viability, T/C is 107%.

Q: And the viability, T/C (second compound 0.003 µM, first compound 1 µM)?
A: The viability, T/C was 104%.

Q: What about the viability, T/C (second compound 0.00949 µM, first compound 0.00316 µM) of the same molecule?
A: The viability, T/C was 104%.

Q: And the viability, T/C (second compound 0.00949 µM, first compound 0.01 µM)?
A: The viability, T/C was 101%.

Q: And the viability, T/C (second compound 0.00949 µM, first compound 0.0316 µM)?
A: The viability, T/C was 106%.

Q: What about the viability, T/C (second compound 0.00949 µM, first compound 0.1 µM) of the same molecule?
A: Its viability, T/C is 107%.

Q: What about the viability, T/C (second compound 0.00949 µM, first compound 0.316 µM) of the same molecule?
A: Its viability, T/C is 106%.

Q: What about the viability, T/C (second compound 0.00949 µM, first compound 1 µM) of the same molecule?
A: The viability, T/C was 105%.

Q: And the viability, T/C (second compound 0.03 µM, first compound 0.00316 µM)?
A: The viability, T/C was 102%.

Q: And the viability, T/C (second compound 0.03 µM, first compound 0.01 µM)?
A: Its viability, T/C is 99.7%.

Q: What about the viability, T/C (second compound 0.03 µM, first compound 0.0316 µM) of the same molecule?
A: Its viability, T/C is 106%.

Q: And the viability, T/C (second compound 0.03 µM, first compound 0.1 µM)?
A: The viability, T/C was 105%.

Q: And the viability, T/C (second compound 0.03 µM, first compound 0.316 µM)?
A: Its viability, T/C is 106%.

Q: What about the viability, T/C (second compound 0.03 µM, first compound 1 µM) of the same molecule?
A: Its viability, T/C is 107%.

Q: What about the viability, T/C (second compound 0.0949 µM, first compound 0.00316 µM) of the same molecule?
A: The viability, T/C was 102%.

Q: What about the viability, T/C (second compound 0.0949 µM, first compound 0.01 µM) of the same molecule?
A: Its viability, T/C is 103%.

Q: What about the viability, T/C (second compound 0.0949 µM, first compound 0.0316 µM) of the same molecule?
A: Its viability, T/C is 106%.

Q: And the viability, T/C (second compound 0.0949 µM, first compound 0.1 µM)?
A: Its viability, T/C is 104%.

Q: And the viability, T/C (second compound 0.0949 µM, first compound 0.316 µM)?
A: Its viability, T/C is 107%.

Q: And the viability, T/C (second compound 0.0949 µM, first compound 1 µM)?
A: Its viability, T/C is 104%.

Q: What about the viability, T/C (second compound 0.3 µM, first compound 0.00316 µM) of the same molecule?
A: Its viability, T/C is 102%.

Q: What about the viability, T/C (second compound 0.3 µM, first compound 0.01 µM) of the same molecule?
A: The viability, T/C was 104%.

Q: And the viability, T/C (second compound 0.3 µM, first compound 0.0316 µM)?
A: Its viability, T/C is 106%.

Q: And the viability, T/C (second compound 0.3 µM, first compound 0.1 µM)?
A: Its viability, T/C is 107%.

Q: And the viability, T/C (second compound 0.3 µM, first compound 0.316 µM)?
A: The viability, T/C was 107%.

Q: And the viability, T/C (second compound 0.3 µM, first compound 1 µM)?
A: Its viability, T/C is 103%.

Q: Which results are given for CC1(C)CCC(Nc2ncc(C(F)(F)F)c(-c3c[nH]c4c(P(C)(C)=O)c(C#N)ccc34)n2)CN1 (stereo unspecified) + CCn1c(-c2cccnc2C(C)OC)c2c3cc(ccc31)N1CCOC(CC(NC(=O)C(C(C)C)N(C)C(=O)C3(F)CCN(C(=O)C#CC(C)(C)N(C)C)CC3)C(=O)N3CCCC(N3)C(=O)OCC(C)(C)C2)C1?
A: IC50 (second compound 0.000949 µM): 1.96 nM; IC50 (second compound 0.003 µM): 1.84 nM; IC50 (second compound 0.00949 µM): 1.83 nM; IC50 (second compound 0.03 µM): 1.79 nM; IC50 (second compound 0.0949 µM): 1.67 nM; IC50 (second compound 0.3 µM): 1.46 nM; viability, T/C [1]: 101%; viability, T/C [2]: 20.1%; viability, T/C [3]: 4.36%; viability, T/C [4]: 3.1%; viability, T/C [5]: 2.69%; viability, T/C [6]: 2.22%; viability, T/C [7]: 94.2%; viability, T/C [8]: 17.3%; viability, T/C [9]: 4.24%; viability, T/C [10]: 3.6%; viability, T/C [11]: 2.6%; viability, T/C [12]: 2.53%; viability, T/C [13]: 93.6%; viability, T/C [14]: 17%; viability, T/C [15]: 4.24%; viability, T/C [16]: 2.85%; viability, T/C [17]: 2.94%; viability, T/C [18]: 2.08%; viability, T/C [19]: 96.1%; viability, T/C [20]: 12.4%; viability, T/C [21]: 3.38%; viability, T/C [22]: 2.65%; viability, T/C [23]: 2.58%; viability, T/C [24]: 1.92%; viability, T/C [25]: 88.9%; viability, T/C [26]: 9.6%; viability, T/C [27]: 2.64%; viability, T/C [28]: 2.41%; viability, T/C [29]: 2.02%; viability, T/C [30]: 1.77%; viability, T/C [31]: 76.2%; viability, T/C [32]: 5.86%; viability, T/C [33]: 2.85%; viability, T/C [34]: 2.43%; viability, T/C [35]: 1.88%; viability, T/C [36]: 1.61%

Q: What does the source list for CCc1c2c(nc3ccc(O)cc13)-c1cc3c(c(=O)n1C2)COC(=O)[C@]3(O)CC + CCn1c(-c2cccnc2C(C)OC)c2c3cc(ccc31)N1CCOC(CC(NC(=O)C(C(C)C)N(C)C(=O)C3(F)CCN(C(=O)C#CC(C)(C)N(C)C)CC3)C(=O)N3CCCC(N3)C(=O)OCC(C)(C)C2)C1?
A: IC50 (second compound 0.000949 µM): 1.38 nM; IC50 (second compound 0.003 µM): 1.45 nM; IC50 (second compound 0.00949 µM): 1.34 nM; IC50 (second compound 0.03 µM): 1.4 nM; IC50 (second compound 0.0949 µM): 1.22 nM; IC50 (second compound 0.3 µM): < 0.949 nM; viability, T/C [1]: 72.7%; viability, T/C [2]: 2.65%; viability, T/C [3]: 1.03%; viability, T/C [4]: 1.2%; viability, T/C [5]: 1.15%; viability, T/C [6]: 0.54%; viability, T/C [7]: 77%; viability, T/C [8]: 3.29%; viability, T/C [9]: 1.02%; viability, T/C [10]: 1.1%; viability, T/C [11]: 1.07%; viability, T/C [12]: 0.54%; viability, T/C [13]: 70.4%; viability, T/C [14]: 2.82%; viability, T/C [15]: 0.87%; viability, T/C [16]: 1.06%; viability, T/C [17]: 1.05%; viability, T/C [18]: 0.47%; viability, T/C [19]: 74.8%; viability, T/C [20]: 1.48%; viability, T/C [21]: 0.74%; viability, T/C [22]: 0.96%; viability, T/C [23]: 0.84%; viability, T/C [24]: 0.42%; viability, T/C [25]: 63.8%; viability, T/C [26]: 1.38%; viability, T/C [27]: 0.98%; viability, T/C [28]: 0.71%; viability, T/C [29]: 0.87%; viability, T/C [30]: 0.47%; viability, T/C [31]: 48.2%; viability, T/C [32]: 1.54%; viability, T/C [33]: 0.75%; viability, T/C [34]: 0.83%; viability, T/C [35]: 0.84%; viability, T/C [36]: 0.44%
